# “Also recorded” adds a separate entry of the source. Square brackets hold non-standard residues; d marks the D form. Peptide text beside a SMILES is read from it.
# Tests used:
# [1] = mouse
# [2] = In vivo toxicity test in wild type mice; conditions: 1 mg i.p. three times per week for four weeks
# Procedure: (§1) Initial testing of Aβ12-28P toxicity in vivo was performed on five wild type C57BL6 mice which received intraperitoneal (“i.p.”) injections of 1 mg of Aβ12-28P diluted in 0.5 mL of sterile PBS three times per week for four weeks. […] Signs of toxicity included change in body weight, physical appearance, measurable clinical signs, unprovoked behavior and response to external stimuli were not noticed. After one month, the animals were sacrificed and samples were taken from the brain, liver, gut, spleen, kidney and heart, for hematoxylin and eosin staining. […] The first administration of Aβ12-28P was begun at four months of age, at which time the APP^K670N/M671L/PS1^M146L mice already have significant numbers of Aβ lesions (Wengenack et al., “Quantitative Histological Analysis of Amyloid Deposition in Alzheimer's Double Transgenic Mouse Brain,” Neurosci. 101:939-944 (2000); McGowan et al., “Amyloid Phenotype Characterization of Transgenic Mice Overexpressing Both Mutant Amyloid Precursor Protein and Mutant Presenilin 1 Transgenes,” Neurobiol. Dis. 6:231-244 (1999), which are hereby incorporated by reference in their entirety). The treatment was continued for four weeks (1 mg i.p. three times per week). Control age-matched APP^K670N/M671L/PS1^M146L mice received injections with vehicle only. There were six Aβ12-28P treated and six vehicle treated APP^K670N/M671L/PS1^M146L mice in this study.
# [3] = design: species or system mice; conditions: mouse, in vivo
# Procedure: Blood samples were collected at given time points. Serum was separated from plasma by centrifugation at 10,000×g for 10 minutes. The trichloroacetic (TCA) acid precipitation method was used to assess the amount of radiolabeled peptide present in the serum (Yi et al., “Amyloid β40/42 Clearance Across the Blood-brain Barrier Following Intra-ventricular Injections in Wild-type, apoE Knock-out and Human apoE3 or E4 Expressing Transgenic Mice,” J. Alz. Dis. 3:23-30 (2001); Mackic et al., “Transport Across the Blood-brain Barrier and Differential Cerebrovascular Sequestration of Circulating Alzheimer's Amyloid-β Peptide in Aged Rhesus Versus Aged Squirrel Monkeys,” Vascul. Pharmacol. 38:303-313 (2002); which are hereby incorporated by reference in their entirety). A 30% stock solution of bovine albumin (Sigma, St. Louis, Mo.) in PBS was added to serum samples to obtain a final albumin solution of 5%, which was thoroughly mixed. Serum samples were then precipitated with TCA (final concentration of TCA was 15%) and centrifugated at 25,000×g in a Beckmann TL-100 Ultracentrifuge. Radioactivity was assessed in the pellet fraction using a Beckman 4000 gamma counter. Serum level of ^125I-Aβ12-28P following intranasal peptide administration was assessed in another six wild type C57BL6J mice. Under ketamine/xylazine anesthesia 80 μg of radiolabeled peptide (in 100 μl of PBS) was administered into the nasal cavity. Ten 10 μl drops were instilled into both nostrils alternatively over five minutes. Serum samples were collected and radioactivity in TCA precipitated pellets was measured as described above. The obtained data was transformed into percentage values compared to serum radioactivity following intravenous injections at t=0 as 100%. The mean±standard deviation from all tested animals was plotted in FIG. 4 and analyzed by a one phase exponential decay nonlinear regression fit algorithm using GraphPad Prism v4.0.
# At t=0, the serum level was equal to about 40% of the level achieved after administration of the same amount of peptide intravenously.
# [4] = test system: APP^K670N/M671L/PS1^M146L double Tg mice; assay: Aβ deposition in APP/PS1 double transgenic mice, 6E10 and Thioflavin-S histology with stereology; type: in vivo; conditions: for Aβ load lower compared to vehicle Tg controls: 1 mg i.p. three times per week, four weeks
# Procedure: as §1
# Animals were sacrificed a week after the last injection with an overdose of sodium pentobarbital (150 mg/kg i.p.) and transcardially perfused with 20 ml of heparinized 0.1M PBS followed by 4% buffered paraformaldehyde. The brain was dehydrated using increasing concentrations of sucrose in 0.1M PBS, pH 7.4 and sectioned using a freezing microtome (Leica SM2400) (Nussloch, Germany). Serial coronal sections (40 μm thick) were collected in 10 series. Each of the series contained a complete set of cross-sections along the rostro-caudal axis of the brain spaced by 400 μm. […] For Aβ immunohistochemistry, endogenous peroxidase activity was quenched in 0.3% H2O2 for 30 min and incubation with mAb 6E10 at 1:1000 dilution was followed by an anti-mouse IgG biotinylated secondary antibody (1:2000) and avidin-horseradish peroxidase complex (Vectastain MOM kit) (Vector Laboratories, Burlingame, Calif.). Sections were developed using 3,3′-diaminobenzidine kit with nickel ammonium sulfate (Vector Laboratories, Burlingame, Calif.).
# Aβ deposition were quantified on one randomly selected section series which was stained with 6E10 mAb. Aβ deposits were measured in the brain cortex and in the hippocampus using a random, unbiased sampling scheme.
compound,measurement,setting,value
CC(=O)N[C@@H](C(=O)N[C@H](Cc1c[nH]cn1)C(=O)N[C@H](Cc1c[nH]cn1)C(=O)N[C@H](CCC(N)=O)C(=O)N[C@H](CCCCN)C(=O)N[C@H](CC(C)C)C(=O)N1CCC[C@@H]1C(=O)N[C@H](Cc1ccccc1)C(=O)N[C@H](Cc1ccccc1)C(=O)N[C@H](C)C(=O)N[C@H](CCC(=O)O)C(=O)N[C@H](CC(=O)O)C(=O)N[C@@H](C(=O)NCC(=O)N[C@H](CO)C(=O)N[C@H](CC(N)=O)C(=O)N[C@H](CCCCN)C(N)=O)C(C)C)C(C)C [Aβ12-28P] (Ac-[dV][dH][dH][dQ][dK][dL][dP][dF][dF][dA][dE][dD][dV]G[dS][dN][dK]-NH2),BBB permeability,[1],BBB permeable
same,share found in the capillary depleted brain fraction,[1]; in vivo,More than 90%
same,survival and condition,"[2]; observed two more weeks, wild type C57BL6 mice",all remained alive and well
same,"hematoxylin and eosin histology of brain, heart, liver, gut, spleen, kidneys",[2]; wild type mice,did not reveal any pathology
same,"signs of toxicity (body weight, physical appearance, clinical signs, unprovoked behavior, response to external stimuli)",[2]; wild type mice,No changes were noted; also recorded: not noticed
same,"areas under the curve, intravenous versus intranasal",[3],no significant differences
same,half-life after a single intravenous injection,[3],1.03 h
same,half-life,"[3]; iv, half-life after a single intravenous injection",1.04 ± 0.3 h
same,reduction in the number of medium-size plaques,"[4]; cortex, >500 μm^2 and <1000 μm^2, p<0.05",53.5%
same,reduction in the number of large plaques,"[4]; cortex, >1000 μm^2, non-significant",44%
same,reduction in the density of small plaques,"[4]; cortex, cross-section area <500 μm^2, p<0.001",52.8%
same,Aβ load lower compared to vehicle Tg controls,"[4]; cortex, p=0.0047",63.3%
same,density of fibrillar Aβ plaques on Thioflavin-S staining,[4]; four weeks of treatment,reduction in the density of Aβ plaques was also seen
same,reduction in the density of large plaques,"[4]; hippocampus, p<0.05",65.4%
same,reduction in the density of medium-size plaques,"[4]; hippocampus, p<0.05",48.6%
same,reduction in the density of small plaques,"[4]; hippocampus, p<0.05",37.6%
same,Aβ load lower compared to vehicle Tg controls,"[4]; hippocampus, p=0.0048",61.9%
same,reduction in the numerical density of Aβ plaques,"[4]; hippocampus, p=0.0047",46.3%
same,reduction in the numerical density of Aβ plaques,"[4]; neocortex, p=0.0002",60.1%
same,"reduction in Aβ load and plaque density versus control Tg animals, in words",[4]; one month of administration,over two fold; also recorded: significant reduction

# From US7632816B2, “Treatment of Alzheimer amyloid deposition” (New York University, priority 2003, dated 2009)
